Results on 16 compounds are retold here after US7851479B2, “Use of pyrimidinedione derivative for preventing or treating hepatitis C” (priority 2006, dated 2010).

Where two headings read alike, the source gives them in different places. Bounds are passed on as bounds.

Data set [1] in a line: drug toxicity control in uninfected MDBK cells (MTS staining). The format is cell-based. The conditions noted are these: bovine. As for the experimental part: (§1) One day before the screening, MDBK cell line (Mardin-Darby bovine kidney, ATTC CCL22) which had been subcultured previously was trypsinized and spread on a plate, followed by counting the cell colonies formed. Then, equal amount of DMEM (Dulbecco's Modified Eagle's Medium) and Ham's F-12 were mixed, and 10% fetal bovine serum was added to the resulting mixture to prepare a tissue culture medium. The MDBK cells were inoculated to the medium at a concentration of 6×10^4 cells/ml, and then the resulting cell solution was added to a 96-well flat-bottomed plate in an amount of 100 μl per well.
(§2) Specified pyrimidinedione derivatives (SAMJIN Pharmaceuticals) were prepared as test compounds and a conventional drug for treating hepatitis C, Ribavirin (Sigma) was used as a comparative drug. Each of the test compounds was dissolved in DMSO to prepare a sample solution. Then, the resulting sample solution was diluted with a mixture prepared by mixing equal amount of DMEM and Ham's F-12 in accordance with the three one-log series dilution to prepare sample dilutes.
(§3) One day after adding MDBK cells to the 96-well plate, the culture solution on the plate was removed and each of the sample dilutes obtained step 2 was added thereto, adjusting the final concentration thereof to 1 to 100 μg/ml. The comparative drug, Ribavirin, was added to each of the control wells of the palte at a concentration of 1 to 100 μg/ml.
(§4) The well-plate comprising ‘cell control group well’ containing MDBK cell only; ‘virus control well’ containing MDBK cell and BVDV virus; ‘drug toxicity control well’ containing MDBK cell and sample compounds for assessing the cell toxicity of each sample; ‘drug calorimetric control well’ containing only one of the sample compounds; and ‘experimental group well’ containing MDBK cell, BVDV virus and one of the sample compounds.
(§5) The well-plate had been placed in a 5% CO2 incubator at 37° C. for 6 days, and then, analyzed with Cell Proliferation Assay kit (CellTiter96® AQUEOUS one solution, Promega). The analysis involves the step of counting live cells by a colorimetric method and the kit contains MTS, a new tetrazolium compound which forms a stable solution when the test compounds are added, and PES, an electron coupling agent. In a cell having vigorous metabolism, NADPH or NADH generated by mitochodrial dehydrogenase renders the soluble MTS to a form of […] formazan crystals. Therefore, the amount of formazan crystal is directly proportional to the number of live cells in a medium.
(§6) The CellTiter96® AQUEOUS one solution reagent of 10 μl was added to each well of the plate and cultivated in a incubator at 37° C. for 4 hours. Then, the plate was covered with an adhesive plate sealer, mixing formazan crystals. Absorbance of each well was measured by Molecular Devices Vmax plate reader (Molecular Devices) at 490 nm.
The toxicity of each sample compound was analyzed with a in-house computer program and the cytopathic effect (CPE), followed by calculating % cell activity, therapeutic Index (TI).
In table 2, EC50 means the dosage at which the desired response is present for 50% of the population, i.e., the concentration of the sample compounds at which the BVDV infection was inhibited for 50% of MDBK cells; TC50 means the dosage at which cell death is induced for 50% of the population, i.e., the cytotoxicity of the sample compounds for MDBK cells. TI (TC50/EC50) means a comparison of the amount of a therapeutic agent that causes the therapeutic effect to the amount that causes toxic effects. Quantitatively, it is the ratio given by the dose required to produce the toxic effect divided by the therapeutic dose.

The test system of data set [2] is bovine viral diarrhea virus (BVDV). Description: anti-BVDV drug screening assay (CPE inhibition, MTS staining). The format is cell-based. The conditions noted are these: for EC50: Bovine viral diarrhea virus isolates and strains, 144 h, read-out: MDBK/BVDV EC50; for TI (TC50/EC50): therapeutic index, MDBK TC50 / BVDV EC50. As for the experimental part: To assess the effectiveness of the pyrimidinedione derivative used in the present invention as a drug for preventing or treating hepatitis C, an anti-BVDV drug screening assay was conducted with bovine viral diarrhea virus (BVDV). BVDV, a virus having a genome, reproduction cycle and infection type similar to hepatitis C virus, was employed because hepatitis C virus can not be subjected to […] cultivation.
as §1
Meanwhile, BVDV (ATCC VR534), which had been stored in a −80° C. freezer at a pre-determined concentration, was transferred to a biological safety cabinet and allowed to thaw at room temperature. The virus was diluted with the tissue culture medium in an sufficient amount for the virus in each well to induce 85 to 95% cell death 6 days after the virus infection.
as §2, §3, §4, §5, §6
The toxicity of each sample compound was analyzed with a in-house computer program and the cytopathic effect (CPE), followed by calculating % cell activity, therapeutic Index (TI). […]

Where [3] appears, read: concentration at which BVDV infection was inhibited for 50% of MDBK cells, 6 days, MTS.

`CCc1c(Oc2cc(C)cc(C)c2)n(CC2CC2)c(=O)[nH]c1=O` [Sample 1b, 1-cyclopropylmethyl-6-(3,5-dimethyl-phenoxy)-5-ethyl-1H-pyrimidine-2,4-dione] had a CC50 at 6 days in data set [1] of over 100 µM. In addition, the EC50 in data set [2] (setting [3]) was determined as 14.1 µM. The “TI (TC50/EC50)” value in data set [2] is reported as over 7.1.

`Cc1cc(C)cc(Oc2c(C(C)C)c(=O)[nH]c(=O)n2CC2=CCCC2)c1` [Sample 1g, 1-cyclopent-1-enymethyl-6-(3,5-dimethyl-phenoxy)-5-isopropyl-1H-pyrimidine-2,4-dione] returned a CC50 at 6 days in data set [1] of over 50 µM. In data set [2] (setting [3]), the EC50 worked out at 20.1 µM. In addition, in data set [2], the “TI (TC50/EC50)” value is reported as over 2.5.

Take `Cc1cc(C)cc(Sc2c(C(C)C)c(=O)[nH]c(=O)n2CCC2CCCC2)c1` [Sample 1l, 1-(2-cyclopentyl-ethyl)-6-(3,5-dimethyl-phenylsulfanyl)-5-isopropyl-1H-pyrimidine-2,4-dione]: the CC50 at 6 days in data set [1] is over 50 µM. In data set [2] (setting [3]), the EC50 is 14 µM. Moreover, the “TI (TC50/EC50)” value in data set [2] was over 3.6.

`Cc1cc(C)cc(Sc2c(C(C)C)c(=O)[nH]c(=O)n2CC2=CCCC2)c1` [Sample 1e, 1-cyclopent-1-enymethyl-6-(3,5-dimethyl-phenylsulfanyl)-5-isopropyl-1H-pyrimidine-2,4-dione] yielded a CC50 at 6 days in data set [1] of over 50 µM. Also, the EC50 in data set [2] (setting [3]) was 10.2 µM. Besides, in data set [2], the “TI (TC50/EC50)” value is over 4.9.

`Cc1cc(C)cc(C(=O)c2c(C(C)C)c(=O)[nH]c(=O)n2CC2=CCCC2)c1` [Sample 1i, 1-cyclopent-1-enymethyl-6-(3,5-dimethyl-benzoyl)-5-isopropyl-1H-pyrimidine-2,4-dione] showed a CC50 at 6 days in data set [1] of 20.5 µM. The EC50 in data set [2] (setting [3]) is 1.36 µM. For the same compound, the “TI (TC50/EC50)” value in data set [2] is recorded as 15.0.

In turn, `Cc1cc(C)cc(C(=O)c2c(C(C)C)c(=O)[nH]c(=O)n2CCC2C=CCC2)c1` (stereo not drawn) [Sample 1o, 1-(2-cyclopent-2-enyl-ethyl)-6-(3,5-dimethyl-benzoyl)-5-isopropyl-1H-pyrimidine-2,4-dione] registered a CC50 at 6 days in data set [1] of 6.94 µM. Also, the EC50 in data set [2] (MDBK) was determined as 1.86 µM. Further, the “TI (TC50/EC50)” value in data set [2] was determined as 3.73.

With `CCc1c(Oc2cc(C)cc(C)c2)n(CC2=CCCC2)c(=O)[nH]c1=O` [Sample 1f, 1-cyolopent-1-enymethyl-6-(3,5-dimethyl-phenoxy)-5-ethyl-1H-pyrimidine-2,4-dione], in data set [1], the CC50 at 6 days is over 100 µM. Further, the EC50 in data set [2] (setting [3]) stood at 1.51 µM. Further, in data set [2], the “TI (TC50/EC50)” value is listed as over 66.3.

Consider `Cc1cc(C)cc(Sc2c(C(C)C)c(=O)[nH]c(=O)n2CC2CC2)c1` [Sample 1a, 1-cyclopropylmethyl-6-(3,5-dimethyl-phenylsulfanyl)-5-isopropyl-1H-pyrimidine-2,4-dione], for which the CC50 at 6 days in data set [1] came out at 6.6 µM. In addition, the EC50 in data set [2] (setting [3]) turned out to be 1.57 µM. Besides, the “TI (TC50/EC50)” value in data set [2] came out at 4.2.

In turn, `Cc1cc(C)cc(Sc2c(C(C)C)c(=O)[nH]c(=O)n2CC2CCC2)c1` [Sample 1c, 1-cyclobutylmethyl-6-(3,5-dimethyl-phenylsulfanyl)-5-isopropyl-1H-pyrimidine-2,4-dione] yielded a CC50 at 6 days in data set [1] of 6.6 µM. For the same compound, the EC50 in data set [2] (setting [3]) amounted to 1.44 µM. In addition, the “TI (TC50/EC50)” value in data set [2] stood at 4.58.

In data set [1], `CCc1c(C(=O)c2cc(C)cc(C)c2)n(CC2=CCC(CO)C2)c(=O)[nH]c1=O` (stereo not drawn) [Sample 1p, 6-(3,5-dimethyl-benzoyl)-5-ethyl-1-(4-hydroxymethyl-cyclopent-1-enylmethyl)-1H-pyrimidine-2,4-dione] gave a CC50 at 6 days of 66 µM. The EC50 in data set [2] (setting [3]) was 15 µM. The “TI (TC50/EC50)” value in data set [2] amounted to 5.11.

In data set [1], `Cc1cc(C)cc(Oc2c(C(C)C)c(=O)[nH]c(=O)n2CCC2C=CCC2)c1` (stereo not drawn) [Sample 1m, 1-(2-cyclopent-2-enyl-ethyl)-6-(3,5-dimethyl-phenoxy)-5-isopropyl-1H-pyrimidine-2,4-dione] had a CC50 at 6 days of over 50 µM. Besides, the EC50 in data set [2] (MDBK) worked out at 13.4 µM. The “TI (TC50/EC50)” value in data set [2] was over 3.7.

For the compound `Cc1cc(C)cc(Sc2c(C(C)C)c(=O)[nH]c(=O)n2CC2CCCC2)c1` [Sample 1d, 1-cyclopentylmethyl-6-(3,5-dimethyl-phenylsulfanyl)-5-isopropyl-1H-pyrimidine-2,4-dione], the CC50 at 6 days in data set [1] is over 50 µM. Also, in data set [2] (setting [3]), the EC50 stood at 13.7 µM. Further, the “TI (TC50/EC50)” value in data set [2] is listed as over 3.7.

In data set [1], `CC(C)c1c(Sc2ccccc2)n(CC2CC=CC2)c(=O)[nH]c1=O` [Sample 1j, 1-cyclopent-3-enymethyl-5-isopropyl-6-phenylsulfanyl-1H-pyrimidine-2,4-dione] returned a CC50 at 6 days of over 50 µM. Further, the EC50 in data set [2] (setting [3]) was 13.7 µM. Moreover, in data set [2], the “TI (TC50/EC50)” value was over 3.7.

`Cc1cc(C)cc(Sc2c(C(C)C)c(=O)[nH]c(=O)n2CC2CCCCC2)c1` [Sample 1k, 1-cyclohexylmethyl-6-(3,5-dimethyl-phenylsulfanyl)-5-isopropyl-1H-pyrimidine-2,4-dione] yielded a CC50 at 6 days in data set [1] of 6.6 µM. The EC50 in data set [2] (setting [3]) was 1.29 µM. Further, in data set [2], the “TI (TC50/EC50)” value was 5.11.

As for `CCc1c(C(=O)c2cc(C)cc(C)c2)n(CC2=CCCC2)c(=O)[nH]c1=O` [Sample 1h, 1-cyclopent-1-enymethyl-6-(3,5-dimethyl-benzoyl)-5-ethyl-1H-pyrimidine-2,4-dione], in data set [1], the CC50 at 6 days was 17.1 µM. Also, the EC50 in data set [2] (setting [3]) came to 13.9 µM. For the same compound, in data set [2], the “TI (TC50/EC50)” value was determined as 1.2.

Turning to `NC(=O)c1ncn([C@@H]2O[C@H](CO)[C@@H](O)[C@H]2O)n1` [Ribavirin, reference compound], the CC50 at 6 days in data set [1] (uninfected MDBK cells (drug toxicity control wells), cytotoxicity for MDBK cells, 6 days, MTS, read-out: MDBK TC50) was found to be 7 µM. Moreover, in data set [2] (setting [3]), the EC50 amounted to 1.66 µM. In data set [2], the “TI (TC50/EC50)” value was determined as 4.2.
